{"source": "patent US20250388554A1", "about": "“ANTIBACTERIAL COMPOUNDS, METHOD OF PRODUCTION AND USE THEREOF” (priority 2024, published 2025)", "key": {"IGPD (Rv1601)": {"molecular_target": "IGPD (Rv1601) (Mycobacterium tuberculosis, UniProt P9WML9)", "sequence (P9WML9 whole entry, looked up)": "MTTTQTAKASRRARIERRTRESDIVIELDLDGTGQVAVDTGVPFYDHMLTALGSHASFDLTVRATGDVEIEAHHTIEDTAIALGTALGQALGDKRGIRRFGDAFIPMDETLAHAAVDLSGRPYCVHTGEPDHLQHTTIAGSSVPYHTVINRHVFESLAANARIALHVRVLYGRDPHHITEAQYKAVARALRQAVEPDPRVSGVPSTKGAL", "experiment": "IGPD stopped-assay, IC50 study", "format": "biochemical"}, "Mtb H37Rv [1]": {"tested_on": "Mtb H37Rv", "experiment": "Resazurin assay (REMA) / alamarBlue MIC", "format": "cell-based", "details": "Mycobacterium tuberculosis, minimal media"}, "[2]": {"tested_on": "Mtb H37Rv in RAW 264.7 macrophages", "experiment": "Efficacy testing in Mtb infected macrophage model", "format": "cell-based, Mycobacterium tuberculosis", "details": "RAW 264.7, MOI=10, 3 days of treatment, 0-240 μM"}, "[3]": {"experiment": "Acute oral toxicity study (OECD 425), 14 days", "details": "for serum levels of SGOT, SGPT, creatinine, and urea compared to the untreated group: all doses, day 14; for LD50: oral, single dose, mice; for body weight compared to the untreated group: single oral dose, female mice, monitored for 14 days", "procedure": "Healthy CD-1 female mice with weight 34±4 grams were used. The animals were housed individually in cages and maintained in a standard laboratory environment. […] A limit dose of 2000 mg/kg body weight of compound was used involving three mice. Each mouse was treated with a single oral dose of 5, 50, 500, 2000 mg/kg body weight on Day 0. Animals were observed individually at least once during the first 30 min after dosing, periodically during the first 24 h and daily thereafter, for a total of 14 days for any clinical signs of toxicity or mortality. At the end of 14 day's observation period, the animals were anaesthetized, and their blood samples were collected through retro orbital bleeding for biochemical and histopathological studies, respectively. For biochemical analysis, blood was centrifuged at 4000 rpm at 4° C. for 10 min, serum was separated and Serum Glutamate Pyruvic Transaminase (SGPT), Serum Glutamate Oxaloacetic Transaminase (SGOT), creatinine, and, urea were estimated using a semi-automated Biochemical coralyzer. For histopathological studies, the animals were euthanized and the livers and kidneys were harvested and examined macroscopically. These organs were then preserved in 10% formalin made in PBS for histopathological examinations by standard techniques.\nFor this, the liver and kidney tissue samples were embedded into wax blocks. The wax blocks were subjected to microtome to generate sections, which were then stained with Hematoxylin and Eosin dyes at a commercial facility. The tissue sections were viewed in a bright field microscope at 40× magnification."}, "Mtb H37Rv [4]": {"tested_on": "Mtb H37Rv", "parameters": "species or system Mycobacterium tuberculosis", "details": "in vivo; for bacterial burden in lungs vs untreated control (CFU) / bacterial burden in spleen vs untreated control (CFU): 100 mg/kg"}, "[5]": {"details": "single oral dose 5 mg/kg, 5 mice initial, 14 days"}, "[6]": {"details": "single oral dose 5 mg/kg, 5 mice, 14 days"}, "[7]": {"details": "single oral dose 50 mg/kg, 5 mice initial, 14 days"}, "[8]": {"details": "single oral dose 50 mg/kg, 5 mice, 14 days"}, "[9]": {"details": "single oral dose 500 mg/kg, 5 mice initial, 14 days"}, "[10]": {"details": "single oral dose 500 mg/kg, 5 mice, 14 days"}, "[11]": {"details": "female, CD-1, mouse, in vivo, po, 2000 mg/kg, 14 days"}}, "data": [{"compound": "NCCSc1ncn[nH]1", "note": "[SF3, 2-(1H-1,2,4-triazol-5-ylsulfanyl)ethanamine]", "values": [{"measurement": "IC50", "setting": "IGPD (Rv1601)", "result": 76.9, "unit": "µM"}, {"measurement": "MIC99", "setting": "Mtb H37Rv [1]", "result": 500, "unit": "µM"}, {"measurement": "bacterial load in Mtb infected macrophages (CFU)", "setting": "[2]", "result": "did not reduce the bacterial load"}, {"measurement": "serum levels of SGOT, SGPT, creatinine, and urea compared to the untreated group", "setting": "[3]", "result": "no significant changes"}, {"measurement": "kidney histology (H&E)", "setting": "[3]; mouse, in vivo", "result": "no pathological changes"}, {"measurement": "liver histology (H&E), FIG. 11", "setting": "[3]; mouse, in vivo", "result": "no pathological changes"}, {"measurement": "clinical signs in surviving mice", "setting": "[3]; oral 5, 50, 500 and 2000 mg/kg body weight, 14 days", "result": "no clinical signs of adverse effects/toxicity"}, {"measurement": "LD50", "setting": "[3]", "result": "below 5000 mg/kg body weight"}, {"measurement": "clinical signs", "setting": "[3]; single dose of 5000 mg/kg, after 12-24 h", "result": "slowness and weight decline"}, {"measurement": "Mice number final", "setting": "[3]; [5]", "result": 5}, {"measurement": "Total Deaths (D)", "setting": "[3]; [6]", "result": 0}, {"measurement": "Mice number final", "setting": "[3]; [7]", "result": 5}, {"measurement": "Total Deaths (D)", "setting": "[3]; [8]", "result": 0}, {"measurement": "Mice number final", "setting": "[3]; [9]", "result": 5}, {"measurement": "Total Deaths (D)", "setting": "[3]; [10]", "result": 0}, {"measurement": "Mice number final", "setting": "[3]; single oral dose 2000 mg/kg, 5 mice initial, 14 days", "result": 3}, {"measurement": "Total Deaths (D)", "setting": "[3]; single oral dose 2000 mg/kg, 5 mice, 14 days", "result": 2}, {"measurement": "Mice number final", "setting": "[3]; single oral dose 5000 mg/kg, 5 mice initial, 14 days", "result": 2}, {"measurement": "Total Deaths (D)", "setting": "[3]; single oral dose 5000 mg/kg, 5 mice, 14 days", "result": 3}, {"measurement": "body weight compared to the untreated group", "setting": "[3]", "result": "decreased for 5, 500, and 2000 mg/kg body weight and increased for 5000 mg/kg body weight"}, {"measurement": "bacterial burden with supplementation of histidine", "setting": "Mtb H37Rv [4]", "result": "restored the bacterial burden to the untreated levels"}, {"measurement": "bacterial burden in lungs vs untreated control (CFU)", "setting": "Mtb H37Rv [4]; po", "result": "significant lowering of the bacterial burden"}, {"measurement": "bacterial burden in spleen vs untreated control (CFU)", "setting": "Mtb H37Rv [4]; po", "result": "significant lowering of the bacterial burden"}]}, {"compound": "CC(N)c1ncnn1C", "note": "(centres unmarked) [SF1, 1-(2-methyl-1,2,4-triazol-3-yl)ethanamine]", "values": [{"measurement": "IC50", "setting": "IGPD (Rv1601)", "result": 33.5, "unit": "µM"}, {"measurement": "MIC99", "setting": "Mtb H37Rv [1]", "result": 31.2, "unit": "µM"}, {"measurement": "bacterial load in Mtb infected macrophages (CFU)", "setting": "[2]", "result": "approximately a thousand-fold decline"}, {"measurement": "bacterial burden in lungs vs untreated control (CFU)", "setting": "Mtb H37Rv [4]; po", "result": "no reduction in the bacterial burden"}, {"measurement": "bacterial burden in spleen vs untreated control (CFU)", "setting": "Mtb H37Rv [4]; po", "result": "no reduction in the bacterial burden"}]}, {"compound": "CC(C)C(N)c1ncnn1C", "note": "(centres unmarked) [SF2, 2-methyl-1-(2-methyl-1,2,4-triazol-3-yl)propan-1-amine]", "values": [{"measurement": "IC50", "setting": "IGPD (Rv1601)", "result": 44.1, "unit": "µM"}, {"measurement": "MIC99", "setting": "Mtb H37Rv [1]", "result": 125, "unit": "µM"}, {"measurement": "bacterial load in Mtb infected macrophages (CFU)", "setting": "[2]", "result": "hundred-fold decline"}, {"measurement": "serum levels of SGOT, SGPT, creatinine, and urea compared to the untreated group", "setting": "[3]", "result": "no significant changes"}, {"measurement": "Mice number final", "setting": "[3]; [11]", "result": 5}, {"measurement": "Total Deaths (D)", "setting": "[3]; [11]", "result": 0}, {"measurement": "clinical signs in surviving mice", "setting": "[3]; mouse, in vivo", "result": "no clinical signs of adverse effects/toxicity"}, {"measurement": "kidney histology (H&E)", "setting": "[3]; mouse, in vivo", "result": "no pathological changes"}, {"measurement": "liver histology (H&E), FIG. 11", "setting": "[3]; mouse, in vivo", "result": "no pathological changes"}, {"measurement": "LD50", "setting": "[3]", "result": "greater than 2000 mg/kg body weight"}, {"measurement": "Mice number final", "setting": "[3]; [5]", "result": 5}, {"measurement": "Total Deaths (D)", "setting": "[3]; [6]", "result": 0}, {"measurement": "Mice number final", "setting": "[3]; [7]", "result": 5}, {"measurement": "Total Deaths (D)", "setting": "[3]; [8]", "result": 0}, {"measurement": "Mice number final", "setting": "[3]; [9]", "result": 5}, {"measurement": "Total Deaths (D)", "setting": "[3]; [10]", "result": 0}, {"measurement": "body weight compared to the untreated group", "setting": "[3]", "result": "increased for all doses while a slight dip in weight for 5 mg/kg body weight on 7th day was observed"}, {"measurement": "bacterial burden with supplementation of histidine", "setting": "Mtb H37Rv [4]", "result": "restored the bacterial burden to the untreated levels"}, {"measurement": "bacterial burden in lungs vs untreated control (CFU)", "setting": "Mtb H37Rv [4]; po", "result": "no reduction in the bacterial burden"}, {"measurement": "bacterial burden in spleen vs untreated control (CFU)", "setting": "Mtb H37Rv [4]; po", "result": "no reduction in the bacterial burden"}, {"measurement": "bacterial load in lungs vs untreated control (CFU)", "setting": "Mtb H37Rv [4]; po, 200 mg/kg", "result": "significant decrease in the bacterial load"}, {"measurement": "reduction in the bacterial load in spleen vs untreated control (CFU)", "setting": "Mtb H37Rv [4]; po, 200 mg/kg", "result": "not found to be statistically significant"}]}]}
